Experimental data: patent US11771735B2, “Composition for improving or preventing nonalcoholic fatty liver” (KOHJIN LIFE SCIENCES CO., LTD., priority 2015, dated 2023)

Tests used:
[1] = tested on: Mice (C57/B6J) fed with high-fat food; settings: 20 weeks old
Text: Mice (C57/B6J, 8 weeks old male) were divided into 4 groups (5 animals each), and the first group (DB) was freely fed with ordinary food (CertifiedDiet “MF” manufactured by Oriental Yeast Co., ltd.). The second group (HFD) was freely fed with high-fat food (High Fat Diet 32, manufactured by CLEA Japan, Inc.), […].
When the mouse was 20 weeks old, the body weight, the liver weight, the serum aspartate aminotransferase (AST), the alanine aminotransferase (ALT), the serum triglyceride (TG), the free fatty acid value (FFA) and the total cholesterol value (T-cho) were measured.

[2] = tested on: subjects who had NAFLD in 31 IU/L or more of ALT; settings: Case IDs 1 to 9 (group affected); at least one week after initiation; oral 300 mg per day
[3] = HFD6 (6 mg/kg/day) and HFD60 (60 mg/kg/day) groups in comparison to HFD group
[4] = high-fat food mice, glutathione 6 and 60 mg/kg/day in water

N[C@@H](CCC(=O)N[C@@H](CS)C(=O)NCC(=O)O)C(=O)O [glutathione]
serum ALT [1, 3]: significant decrease | serum AST [1, 3]: significant decrease | serum FFA (free fatty acid value) [1, 3]: significant decrease | serum T-cho (total cholesterol value) [1, 3]: significant decrease | serum TG (triglyceride value) [1, 3]: significant decrease | liver weight [1, 4]: the liver weight decreased dependently on the concentration | ratio of liver weight/body weight [1, 4]: decrease of the body weight ratio was also recognized | body weight ([1]; high-fat food mice, glutathione 6 or 60 mg/kg/day in water): decrease of the body weight was recognized | improvement of ALT after the administration versus before administration (0 wk) [2]: ≥ 20%
